Patent US20250188123A1, “PROTEASE INHIBITORS” (Regents of the University of Minnesota, priority 2022, published 2025)
“Also recorded” adds a separate entry of the source. Read-outs that look alike come from different tables or passages of the source.

Target: T1, recombinant human caspase-2 (cleavage of tau at D314) (Homo sapiens, UniProt P42575)
T1 construct: human caspase-2 p19 and p12 subunits were cloned as two separate open reading frames in the pCOLADuet-1 vector; made in house; host or cells: E. coli BL21(DE3)
T1 sequence (P42575 170-325 limits assumed): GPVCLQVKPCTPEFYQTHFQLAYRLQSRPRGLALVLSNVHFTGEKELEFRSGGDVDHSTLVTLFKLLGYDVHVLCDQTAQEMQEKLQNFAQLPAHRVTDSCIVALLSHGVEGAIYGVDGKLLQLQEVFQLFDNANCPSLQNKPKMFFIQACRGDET
T1 sequence (P42575 348-452 limits assumed): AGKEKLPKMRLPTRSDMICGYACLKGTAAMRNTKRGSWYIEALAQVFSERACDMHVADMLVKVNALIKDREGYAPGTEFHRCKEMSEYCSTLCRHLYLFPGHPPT
Assay: In vitro caspase-2-catalyzed tau cleavage assay (Δtau314 production, IP/WB)
Format: biochemical
Conditions: for inhibition at 10 µM: read-out: inhibition of Casp2-catalyzed Δtau314 production (tau cleavage at D314)
Protocol: DNA sequences encoding human caspase-2 p19 and p12 subunits were cloned as two separate open reading frames in the pCOLADuet-1 vector (Millipore Sigma, Burlington, MA). The DNA sequence encoding human microtubule-associated protein tau 0N4R isoform was cloned in the pET28a vector (Millipore Sigma). Expression of recombinant human caspase-2 and tau was induced using 150 μM isopropyl-β-D-thiogalactopyranoside (IPTG) (Promega, Madison, WI) in the BL21(DE3) E. coli strain (Millipore Sigma) at room temperature for 16 hours while shaking at 250 rpm. Cells were then harvested via centrifugation at 6,000 g, 4° C. for 15 minutes, followed by lysis via sonication. Proteins were purified using HisPur Ni-NTA resin (Thermo Fisher Scientific, Waltham, MA) followed by HiTrap Chelating HP columns (GE Healthcare Life Sciences, Piscataway, NJ). Proteins were stored in 1× phosphate-buffered saline (pH 7.4) at 10 mg/mL (determined using a BCA assay (Thermo Fisher Scientific)), −80° C. until further use.
Purified recombinant Casp2 (final concentration during pre-incubation: 67 μM) was pre-incubated with various concentrations of inhibitory compounds at 4° C. for 72 h. Pre-treated enzyme was then incubated with purified recombinant tau at a molar ratio of 1:1 in 37° C. water bath, 1× reaction buffer (25 mM 4-(2-hydroxyethyl)-1-piperazineethanesulfonic acid (HEPES), 0.1% (w/v) 3-[(3-cholamidopropyl)dimethylammonio]-1-propanesulfonate (CHAPS), 10 mM dithiothreitol (DTT), pH 7.5) for 7 h. The final volume of each reaction was 100 μL. At the end of the 7-h incubation, 0.1% (v/v) protease inhibitor cocktail (Millipore Sigma) was added to stop the reactions.
Immediately after the reaction was stopped, the 100 μL enzyme-product mixture was diluted in 400 μL IP buffer (50 mM Tris-HCl (pH 7.4) and 150 mM NaCl, containing 0.1 mM phenylmethylsulfonyl fluoride, 0.2 mM 1,10-phenanthroline monohydrate, and protease inhibitor cocktail (Millipore Sigma)), and then incubated with 10 μg of Δtau314-specific monoclonal antibody 4F3 and 50 μL of Protein G Sepharose 4 Fast Flow resin (GE Healthcare) at 4° C. for 14-16 h. Subsequent resin wash and protein elution were performed as described previously (Liu P, et al., Scientific Reportsm 2020, 10, 3869). WB was performed according to a previously published protocol (Liu P, et al., Acta Neuropathologica Communications, 2019; 7, 111).

Q: How did the “inhibition of Casp2-catalyzed Δtau314 production (tau cleavage at D314)” value (compound at 10 μM, no-compound control = 100% Δtau314, 10 µM) turn out when `CC(=O)N[C@H](C(=O)NC(CC(=O)O)C(=O)N[C@H](C(=O)N1CCc2cc(C)ccc2C1C(=O)N[C@H](C=O)CC(=O)O)C(C)C)C(C)C` (stereo in doubt) [Compound 30a, (R)-3-((S)-2-acetamido-3-methylbutanamido)-4-(((S)-1-((S)-1-(((S)-1-carboxy-3-oxopropan-2-yl)carbamoyl)-6-methyl-3,4-dihydroisoquinolin-2(1H)-yl)-3-methyl-1-oxobutan-2-yl)amino)-4-oxobutanoic acid, reference compound] was run?
A: no inhibition; also recorded: did not inhibit

Q: `Cc1ccc2c(c1)CCN(C(=O)[C@@H](NC(=O)[C@H](CCCC(=O)O)NC(=O)C1Cc3ccccc3N1)C(C)C)[C@@H]2C(=O)N[C@H](C#N)CC(=O)O` (stereo partly drawn) [Compound 1, (8)-6-(((S)-1-((8)-1-(((S)-2-carboxy-1-cyanoethyl)carbamoyl)-6-methyl-3,4-dihydroisoquinolin-2(1H)-yl)-3-methyl-1-oxobutan-2-yl)amino)-5-((S)-indoline-2-carboxamido)-6-oxohexanoic acid] was tested. Which IC50 did it give?
A: 2020 ± 190 nM

Q: And the inhibition at 10 µM?
A: 96%

Q: How did the inhibition at 10 µM (compound at 10 μM, no-compound control = 100% Δtau314) turn out when `CC(=O)N[C@H](C(=O)N[C@@H](CC(=O)O)C(=O)N[C@H](C(=O)N1CCc2cc(C)ccc2[C@H]1C(=O)N[C@H](C=O)CC(=O)O)C(C)C)C(C)C` [Compound 30b, (S)-3-((S)-2-acetamido-3-methylbutanamido)-4-(((S)-1-((S)-1-(((S)-1-carboxy-3-oxopropan-2-yl)carbamoyl)-6-methyl-3,4-dihydroisoquinolin-2(1H)-yl)-3-methyl-1-oxobutan-2-yl)amino)-4-oxobutanoic acid, reference compound] was run?
A: 68%
